Measurements published in patent publication US11524968B2, “Heterocyclic compound as a protein kinase inhibitor” (HK inno.N Corporation, priority 2017, dated 2022).

Target: JAK1 (Homo sapiens (Human), UniProt P23458)
Assay: Analysis of JAK1 activity inhibition ability (ADP-Glo Kinase Assay)
Format: biochemical
Conditions: JAK1 enzyme, ADP-Glo luminescence, ATP 250 uM, IRS-itide substrate, 30° C. 40 minutes; read-out: IC50
Method: Test Example 1: Analysis of JAK1 Activity Inhibition Ability of Compound of Formula 1 (ADP-Glo™ Kinase Assay)
A JAK inhibition ability of a compound according to the present invention was identified as follows.
A control material and a test material were prepared for each concentration, in such a way that they were diluted by means of DMSO. At the same time, ATP (250 uM) and JAK substrate (JAK1, IRS-itide 40 ng/mL) were prepared, in such a way that they were diluted by means of kinase buffer (40 mM Tris-HCl pH 7.5, 20 mM MgCl2, 0.5 mg/mL BSA, 50 uM DTT).
A test drug for each concentration, substrate, ATP and JAK enzyme were mixed in an eppendorf tube, and reacted in a 30° C. incubator for 40 minutes.
ADP-Glo™ reagent contained in ADP-Glo™ Kinase Enzyme System (Promega, USA, V9571) was added into each eppendorf tube, and reacted in a 30° C. incubator for 40 minutes. A kinase detection reagent contained in ADP-Go™ Kinase Enzyme System was inserted into the eppendorf tube, then an integration time was set to 1 second by using Wallac Victor 2™, then luminescence was measured, and then JAKs phosphorylation inhibition ability of the test material was analyzed. The concentration of the compound, which causes 50% of the JAK enzyme activity inhibition in comparison With the control group, was determined as IC50 (nM) of an inhibitor, wherein the results thereof are shown in a following table 1.

Chain of JAK1 (P23458 whole entry): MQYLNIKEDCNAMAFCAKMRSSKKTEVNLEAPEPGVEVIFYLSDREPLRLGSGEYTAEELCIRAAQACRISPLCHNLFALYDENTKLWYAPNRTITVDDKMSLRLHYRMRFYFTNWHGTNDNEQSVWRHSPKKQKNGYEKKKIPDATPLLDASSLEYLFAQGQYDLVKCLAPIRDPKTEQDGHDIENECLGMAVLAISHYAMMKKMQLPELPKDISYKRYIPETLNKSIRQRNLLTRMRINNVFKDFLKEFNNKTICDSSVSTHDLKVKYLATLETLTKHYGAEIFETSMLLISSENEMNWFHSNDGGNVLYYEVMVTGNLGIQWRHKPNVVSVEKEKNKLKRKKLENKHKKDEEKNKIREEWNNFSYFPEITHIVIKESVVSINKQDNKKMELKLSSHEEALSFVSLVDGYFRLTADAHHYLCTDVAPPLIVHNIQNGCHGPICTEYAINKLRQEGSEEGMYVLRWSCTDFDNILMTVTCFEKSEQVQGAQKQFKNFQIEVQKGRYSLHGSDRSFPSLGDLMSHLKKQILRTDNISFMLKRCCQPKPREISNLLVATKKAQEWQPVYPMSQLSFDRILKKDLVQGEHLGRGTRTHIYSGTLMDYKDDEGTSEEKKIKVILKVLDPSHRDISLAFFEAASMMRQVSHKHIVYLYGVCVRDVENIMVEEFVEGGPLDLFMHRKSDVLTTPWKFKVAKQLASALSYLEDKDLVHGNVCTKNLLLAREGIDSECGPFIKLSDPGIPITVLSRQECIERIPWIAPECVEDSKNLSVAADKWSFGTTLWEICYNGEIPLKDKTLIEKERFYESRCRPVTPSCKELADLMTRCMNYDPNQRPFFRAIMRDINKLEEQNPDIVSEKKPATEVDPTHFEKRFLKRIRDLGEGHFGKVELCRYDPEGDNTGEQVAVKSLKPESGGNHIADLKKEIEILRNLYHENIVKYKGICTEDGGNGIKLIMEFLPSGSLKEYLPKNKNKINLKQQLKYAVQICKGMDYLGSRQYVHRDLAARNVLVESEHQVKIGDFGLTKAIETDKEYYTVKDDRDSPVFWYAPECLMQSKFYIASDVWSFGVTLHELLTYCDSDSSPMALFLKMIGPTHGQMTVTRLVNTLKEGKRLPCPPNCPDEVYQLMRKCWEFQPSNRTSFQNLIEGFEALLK

| IC50 [nM] | Structure (SMILES) |
| --- | --- |
| 20 to 200 | CCS(=O)(=O)Oc1ccc(-c2cc(NC(=O)C3CC3)nc3[nH]ccc23)cc1 [Example 629, 4-(6-(cyclopropanecarboxamido)-1H-pyrrolo[2,3-b]pyridin-4-yl)phenyl ethanesulfonate] |
| 20 to 200 | O=C(Nc1cc(-c2ccc(CC(=O)N3CCC(F)(F)CC3)cc2)c2cc[nH]c2n1)C1CC1 [Example 561, N-(4-(4-(2-(4,4-difluoropiperidin-1-yl)-2-oxoethyl)phenyl)-1H-pyrrolo[2,3-b]pyridin-6-yl)cyclopropanecarboxamide] |
| < 20 | CCN(C)S(=O)(=O)Nc1ccc(-c2cc(NC(=O)C3CC3)nc3[nH]ccc23)cc1 [Example 215, N-(4-(4-((N-ethyl-N-methylsulfamoyl)amino)phenyl)-1H-pyrrolo[2,3-b]pyridin-6-yl)cyclopropanecarboxamide] |
| 20 to 200 | CC1CN(C(=O)c2ccncc2)CC=C1c1cc(NC(=O)C2CC2)nc2[nH]ccc12 (stereo not drawn) [Example 336, N-(4-(1-isonicotinoyl-3-methyl-1,2,3,6-tetrahydropyridin-4-yl)-1H-pyrrolo[2,3-b]pyridin-6-yl)cyclopropanecarboxamide] |
| 20 to 200 | CCS(=O)(=O)Nc1ccc(-c2nc(NC(=O)C3CC3)nc3[nH]ccc23)cc1 [Example 182, N-(4-(4-(ethylsulfonamido)phenyl)-7H-pyrrolo[2,3-d]pyrimidin-2-yl)cyclopropanecarboxamide] |
| < 20 | O=C(Nc1cc(-c2ccc(NS(=O)(=O)c3cccc(F)c3)cc2)c2cc[nH]c2n1)C1CC1 [Example 25, N-(4-(4-((3-fluorophenyl)sulfonamido)phenyl)-1H-pyrrolo[2,3-b]pyridin-6-yl)cyclopropanecarboxamide] |
| < 20 | COc1ccc(S(=O)(=O)Nc2ccc(-c3cc(NC(=O)C4CC4)nc4[nH]ccc34)cc2)cn1 [Example 23, N-(4-(4-((6-methoxypyridine)-3-sulfonamido)phenyl)-1H-pyrrolo[2,3-b]pyridin-6-yl)cyclopropanecarboxamide] |
| > 200 | C=CCS(=O)(=O)N[C@H]1CCN(c2nc(NC(=O)C3CC3)nc3[nH]ccc23)C1 [Example 671, (S)—N-(4-(3-(allylsulfonamido)pyrrolidin-1-yl)-7H-pyrrolo[2,3-d]pyrimidin-2-yl)cyclopropanecarboxamide] |
| < 20 | O=C(Nc1cc(C2=CCN(C(=O)c3ccnc(F)c3)CCC2)c2cc[nH]c2n1)C1CC1 [Example 423, N-(4-(1-(2-fluoroisonicotinoyl)-2,5,6,7-tetrahydro-1H-azepin-4-yl)-1H-pyrrolo[2,3-b]pyridin-6-yl)cyclopropanecarboxamide] |
| < 20 | N#CCC1(N2CC=C(c3cc(NC(=O)C4CC4)nc4[nH]ccc34)CC2)CN(S(=O)(=O)C(F)(F)F)C1 [Example 619, N-(4-(1-(3-(cyanomethyl)-1-((trifluoromethyl)sulfonyl)azetidin-3-yl)-1,2,3,6-tetrahydropyridin-4-yl)-1H-pyrrolo[2,3-b]pyridin-6-yl)cyclopropanecarboxamide] |
| 20 to 200 | CCCS(=O)(=O)NC1CC=C(c2cc(NC(=O)C3CC3)nc3[nH]ccc23)CC1 (stereo not drawn) [Example 152, N-(4-(4-(propylsulfonamido)cyclohex-1-en-1-yl)-1H-pyrrolo[2,3-b]pyridin-6-yl)cyclopropanecarboxamide] |
| 20 to 200 | CC1CN(C(=O)c2ccncc2F)CC=C1c1cc(NC(=O)C2CC2)nc2[nH]ccc12 (stereo not drawn) [Example 314, N-(4-(1-(3-fluoroisonicotinoyl)-3-methyl-1,2,3,6-tetrahydropyridin-4-yl)-1H-pyrrolo[2,3-b]pyridin-6-yl)cyclopropanecarboxamide] |
| > 200 | O=C(Nc1nc(-c2ccc(CNc3ccc(F)cc3)cc2)c2nc[nH]c2n1)C1CC1 [Example 597, N-(6-(4-(((4-fluorophenyl)amino)methyl)phenyl)-9H-purin-2-yl)cyclopropanecarboxamide] |
| > 200 | O=C(Nc1nc(-c2ccc(NC(=S)NC3CCCCC3)cc2)c2cc[nH]c2n1)C1CC1 [Example 464, N-(4-(4-(3-cyclohexylthioureido)phenyl)-7H-pyrrolo[2,3-d]pyrimidin-2-yl)cyclopropanecarboxamide] |
| > 200 | CCC(=O)NC1CC=C(c2cc(NC(=O)C3CC3)nc3[nH]ccc23)CC1 (stereo not drawn) [Example 242, N-(4-(4-propionamidocyclohex-1-en-1-yl)-1H-pyrrolo[2,3-b]pyridin-6-yl)cyclopropanecarboxamide] |
| < 20 | C[C@@H]1CN(C(=O)c2ccnc(F)c2F)CC=C1c1cc(NC(=O)C2CC2)nc2[nH]ccc12 [Example 396, (S)—N-(4-(1-(2,3-difluoroisonicotinoyl)-3-methyl-1,2,3,6-tetrahydropyridin-4-yl)-1H-pyrrolo[2,3-b]pyridin-6-yl)cyclopropanecarboxamide] |
| 20 to 200 | CC1CN(C(=O)c2cc(Cl)nc(Cl)c2)CC=C1c1cc(NC(=O)C2CC2)nc2[nH]ccc12 (stereo not drawn) [Example 372, N-(4-(1-(2,6-dichloroisonicotinoyl)-3-methyl-1,2,3,6-tetrahydropyridin-4-yl)-1H-pyrrolo[2,3-b]pyridin-6-yl)cyclopropanecarboxamide] |
| < 20 | O=C(Nc1cc(-c2ccc(NS(=O)(=O)C3CCS(=O)(=O)CC3)cc2)c2cc[nH]c2n1)C1CC1 [Example 9, N-(4-(4-((1,1-dioxidotetrahydro-2H-thiopyran)-4-sulfonamido)phenyl)-1H-pyrrolo[2,3-b]pyridin-6-yl)cyclopropanecarboxamide] |
| < 20 | O=C(Nc1cc(-c2ccc(NS(=O)(=O)CC3CCOC3)cc2)c2cc[nH]c2n1)C1CC1 (stereo not drawn) [Example 54, N-(4-(4-(((tetrahydrofuran-3-yl)methyl)sulfonamido)phenyl)-1H-pyrrolo[2,3-b]pyridin-6-yl)cyclopropanecarboxamide] |
| < 20 | C=CCS(=O)(=O)NC1CC=C(c2cc(NC(=O)C3CC3)nc3[nH]ccc23)CC1 (stereo not drawn) [Example 160, N-(4-(4-(allylsulfonamido)cyclohex-1-en-1-yl)-1H-pyrrolo[2,3-b]pyridin-6-yl)cyclopropanecarboxamide] |
| 20 to 200 | CCCC1C=C(c2cc(NC(=O)C3CC3)nc3[nH]ccc23)CCN1C(=O)CC#N (stereo not drawn) [Example 411, N-(4-(1-(2-cyanoacetyl)-6-propyl-1,2,3,6-tetrahydropyridin-4-yl)-1H-pyrrolo[2,3-b]pyridin-6-yl)cyclopropanecarboxamide] |
| < 20 | N#CCC(=O)N1CC=C(c2cc(NC(=O)C3CC3)[n+]([O-])c3[nH]ccc23)CC1 [Example 275, 4-(1-(2-cyanoacetyl)-1,2,3,6-tetrahydropyridin-4-yl)-6-(cyclopropanecarboxamido)-1H-pyrrolo[2,3-b]pyridine 7-oxide] |
| 20 to 200 | O=C(Nc1cc(C2=CCN(S(=O)(=O)c3ccc(F)c(F)c3)CC2)c2cc[nH]c2n1)C1CC1 [Example 173, N-(4-(1-((3,4-difluorophenyl)sulfonyl)-1,2,3,6-tetrahydropyridin-4-yl)-1H-pyrrolo[2,3-b]pyridin-6-yl)cyclopropanecarboxamide] |
| 20 to 200 | COc1ccc(C(=O)N2CC=C(c3cc(NC(=O)C4CC4)nc4[nH]ccc34)C(C)C2)cc1F (stereo not drawn) [Example 312, N-(4-(1-(3-fluoro-4-methoxybenzoyl)-3-methyl-1,2,3,6-tetrahydropyridin-4-yl)-1H-pyrrolo[2,3-b]pyridin-6-yl)cyclopropanecarboxamide] |
| 20 to 200 | O=C(Nc1cc(-c2ccc(CNC3CCS(=O)(=O)CC3)cc2)c2cc[nH]c2n1)C1CC1 [Example 596, N-(4-(4-(((1,1-dioxidotetrahydro-2H-thiopyran-4-yl)amino)methyl)phenyl)-1H-pyrrolo[2,3-b]pyridin-6-yl)cyclopropanecarboxamide] |
| 20 to 200 | O=C(Nc1nc(-c2ccc(NS(=O)(=O)C3CCS(=O)(=O)C3)cc2)c2cc[nH]c2n1)C1CC1 (stereo not drawn) [Example 196, N-(4-(4-((1,1-dioxidotetrahydrothiophene)-3-sulfonamido)phenyl)-7H-pyrrolo[2,3-d]pyrimidin-2-yl)cyclopropanecarboxamide] |
| < 20 | N#CCCCC(=O)N1CC=C(c2cc(NC(=O)C3CC3)nc3[nH]ccc23)CC1 [Example 265, N-(4-(1-(4-cyanobutanoyl)-1,2,3,6-tetrahydropyridin-4-yl)-1H-pyrrolo[2,3-b]pyridin-6-yl)cyclopropanecarboxamide] |

| Structure (SMILES) | IC50 [nM] |
| --- | --- |
| CCCCOc1ccc(-c2cc(NC(=O)C3CC3)nc3[nH]ccc23)cc1 [Example 643, N-(4-(4-butoxyphenyl)-1H-pyrrolo[2,3-b]pyridin-6-yl)cyclopropanecarboxamide] | > 200 |
| CC(C)N1CCN(C(=O)Cc2ccc(-c3cc(NC(=O)C4CC4)nc4[nH]ccc34)cc2)CC1 [Example 552, N-(4-(4-(2-(4-isopropylpiperazin-1-yl)-2-oxoethyl)phenyl)-1H-pyrrolo[2,3-b]pyridin-6-yl)cyclopropanecarboxamide] | > 200 |
| O=C(Nc1cc(C2=CC3CCCC(C2)N3C(=O)c2ccc([N+](=O)[O-])cc2)c2cc[nH]c2n1)C1CC1 (stereo not drawn) [Example 370, N-(4-(9-(4-nitrobenzoyl)-9-azabicyclo[3.3.1]non-2-en-3-yl)-1H-pyrrolo[2,3-b]pyridin-6-yl)cyclopropanecarboxamide] | 20 to 200 |
